Results as given in US10246462B2, “Chemokine receptor modulators and uses thereof” (FLX Bio, Inc., priority 2016, dated 2019).
pIC50: −log10 of the molar value. Where a name gives a salt, the structure may show the parent alone.

Target: CCR4 (Homo sapiens (Human), UniProt P51679)
Experiment: Calcium mobilization (Ca Flux) assay
Type: cell-based
Description: Calcium Mobilization Assay. Calcium mobilization experiments may be performed by labeling the human T-cell line CEM with […] dye (45 min at room temperature), washing with PBS, and re-suspending into flux buffer (HBSS with 1% FBS).

CCR4, sequence (P51679 whole entry): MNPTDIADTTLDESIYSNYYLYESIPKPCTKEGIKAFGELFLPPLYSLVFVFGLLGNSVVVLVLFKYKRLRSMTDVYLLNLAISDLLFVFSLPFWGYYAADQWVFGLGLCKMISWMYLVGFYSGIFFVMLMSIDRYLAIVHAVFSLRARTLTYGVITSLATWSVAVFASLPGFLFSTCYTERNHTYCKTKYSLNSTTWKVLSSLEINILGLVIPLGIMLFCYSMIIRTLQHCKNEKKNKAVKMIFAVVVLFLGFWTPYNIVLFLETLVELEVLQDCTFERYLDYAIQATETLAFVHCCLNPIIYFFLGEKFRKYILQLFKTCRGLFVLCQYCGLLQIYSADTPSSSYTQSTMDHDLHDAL

| Structure (SMILES) | pIC50 |
| --- | --- |
| Cc1nn([C@H](C)c2ccc(Cl)cc2Cl)c2nc(N3CCC(N4CCC[C@@H]4C)C(C)C3)cnc12 (stereo partly drawn) [Example 21, 1-((R)-1-(2,4-Dichlorophenyl)ethyl)-3-methyl-6-(3-methyl-4-((S)-2-methylpyrrolidin-1-yl)piperidin-1-yl)-1H-pyrazolo[3,4-b]pyrazine hydrochloride] | < 6.30 |
| Cc1nn([C@H](C)c2ccc(Cl)cc2Cl)c2nc(N3CC[C@H](N4CCC[C@@H]4C)[C@H](C)C3)cnc12 [Example 22, 1-((R)-1-(2,4-Dichlorophenyl)ethyl)-3-methyl-6-((3R,4S)-3-methyl-4-((S)-2-methylpyrrolidin-1-yl)piperidin-1-yl)-1H-pyrazolo[3,4-b]pyrazine hydrochloride] | 6.30 to 7.00 |
| C[C@@H]1CN(c2cnc3c(C#N)nn([C@H](C)c4ccc(Cl)cc4Cl)c3n2)CC[C@@H]1N1CCCCC1 [Example 23, 1-((R)-1-(2,4-Dichlorophenyl)ethyl)-6-((3′R,4′S)-3′-methyl-[1,4′-bipiperidin]-1′-yl)-1H-pyrazolo[3,4-b]pyrazine-3-carbonitrile hydrochloride] | > 7.00 |
| C[C@H](c1ccc(Cl)cc1Cl)n1nc(C#N)c2ncc(N3CC[C@@H](N4CCCCC4)[C@@H](C)C3)nc21 [Example 24, 1-((R)-1-(2,4-Dichlorophenyl)ethyl)-6-((3′S,4′R)-3′-methyl-[1,4′-bipiperidin]-1′-yl)-1H-pyrazolo[3,4-b]pyrazine-3-carbonitrile hydrochloride] | < 6.30 |
| CC(c1ccc(Cl)cc1Cl)n1nc(C(N)=O)c2ncc(N3CCC(N4CCCCC4)C(F)C3)nc21 (stereo not shown) [Example 25, 1-(1-(2,4-Dichlorophenyl)ethyl)-6-(3′-fluoro-[1,4′-bipiperidin]-1′-yl)-1H-pyrazolo[3,4-b]pyrazine-3-carboxamide hydrochloride] | 6.30 to 7.00 |
| CC(c1ccc(Cl)cc1Cl)n1nc(C#N)c2ncc(N3CCC(N4CCCCC4)C(F)C3)nc21 (stereo not shown) [Example 26, 1-(1-(2,4-Dichlorophenyl)ethyl)-6-(3′-fluoro-[1,4′-bipiperidin]-1′-yl)-1H-pyrazolo[3,4-b]pyrazine-3-carbonitrile 2,2,2-trifluoroacetate] | < 6.30 |
| CC(c1ccc(Cl)cc1Cl)n1nc(C(N)=O)c2ncc(N3CCC(N4CCCCC4)C(CO)C3)nc21 (stereo not shown) [Example 27, 1-(1-(2,4-Dichlorophenyl)ethyl)-6-(3′-(hydroxymethyl)-[1,4′-bipiperidin]-1′-yl)-1H-pyrazolo[3,4-b]pyrazine-3-carboxamide hydrochloride] | 6.30 to 7.00 |
| C[C@H](c1ccc(Cl)cc1Cl)n1nc(C#N)c2ncc(N3CC[C@@H](N4CCCCC4)[C@@H](CO)C3)nc21 [Example 28, 1-((R)-1-(2,4-Dichlorophenyl)ethyl)-6-((3′S,4′R)-3′-(hydroxymethyl)-[1,4′-bipiperidin]-1′-yl)-1H-pyrazolo[3,4-b]pyrazine-3-carbonitrile hydrochloride] | 6.30 to 7.00 |
| C[C@H](c1ccc(Cl)cc1Cl)n1nc(C#N)c2ncc(N3CC[C@H](N4CCCCC4)[C@H](CO)C3)nc21 [Example 29, 1-((R)-1-(2,4-Dichlorophenyl)ethyl)-6-((3′R,4′S)-3′-(hydroxymethyl)-[1,4′-bipiperidin]-1′-yl)-1H-pyrazolo[3,4-b]pyrazine-3-carbonitrile hydrochloride] | > 7.00 |
| Cc1nn([C@H](C)c2ccc(Cl)cc2Cl)c2nc(N3CC[C@H](N4CCC[C@H]4C)[C@H](C(=O)O)C3)cnc12 [Example 30, (3R,4S)-1-(1-((R)-1-(2,4-Dichlorophenyl)ethyl)-3-methyl-1H-pyrazolo[3,4-b]pyrazin-6-yl)-4-((R)-2-methylpyrrolidin-1-yl)piperidine-3-carboxylic acid hydrochloride] | 6.30 to 7.00 |
| C[C@@H]1CN(c2cnc3c(C#N)nn([C@H](C)c4ccc(Cl)cc4Cl)c3n2)CC[C@@H]1N1CCC[C@H]1CO [Example 33, 1-((R)-1-(2,4-Dichlorophenyl)ethyl)-6-((3R,4S)-4-((S)-2-(hydroxymethyl)pyrrolidin-1-yl)-3-methylpiperidin-1-yl)-1H-pyrazolo[3,4-b]pyrazine-3-carbonitrile hydrochloride] | > 7.00 |
| Cc1nn([C@H](C)c2ccc(Cl)cc2Cl)c2nc(N3CC[C@H](N4CCC[C@H]4C(=O)O)[C@H](C)C3)cnc12 [Example 34, ((3R,4S)-1-(1-((R)-1-(2,4-Dichlorophenyl)ethyl)-3-methyl-1H-pyrazolo[3,4-b]pyrazin-6-yl)-3-methylpiperidin-4-yl)-L-proline 2,2,2-trifluoroacetate] | < 6.30 |
| C[C@@H]1CN(c2cnc3c(C#N)nn([C@H](C)c4ccc(Cl)cc4Cl)c3n2)CC[C@@H]1N1CCC[C@H]1C(=O)O [Example 35, ((3R,4S)-1-(3-Cyano-1-((R)-1-(2,4-dichlorophenyl)ethyl)-1H-pyrazolo[3,4-b]pyrazin-6-yl)-3-methylpiperidin-4-yl)-L-proline 2,2,2-trifluoroacetate] | 6.30 to 7.00 |
| Cc1nn([C@H](C)c2ccc(Cl)cc2Cl)c2nc(N3CC[C@H](N4CCC[C@H]4C(C)(C)O)[C@H](C)C3)cnc12 [Example 36, 2-((S)-1-((3R,4S)-1-(1-((R)-1-(2,4-Dichlorophenyl)ethyl)-3-methyl-1H-pyrazolo[3,4-b]pyrazin-6-yl)-3-methylpiperidin-4-yl)pyrrolidin-2-yl)propan-2-ol hydrochloride] | 6.30 to 7.00 |
| Cc1nn([C@H](C)c2ccc(Cl)cc2Cl)c2nc(N3CC[C@H](N4C[C@H](O)C[C@H]4C(=O)O)[C@H](C)C3)cnc12 [Example 37, (2S,4R)-1-((3R,4S)-1-(1-((R)-1-(2,4-Dichlorophenyl)ethyl)-3-methyl-1H-pyrazolo[3,4-b]pyrazin-6-yl)-3-methylpiperidin-4-yl)-4-hydroxypyrrolidine-2-carboxylic acid 2,2,2-trifluoroacetate] | < 6.30 |
| Cc1nn([C@H](C)c2ccc(Cl)cc2Cl)c2nc(N3CC[C@H](N4CCC[C@@H](CC(=O)O)C4)[C@H](C)C3)cnc12 [Example 38, 2-((3S,3′R,4′S)-1′-(1-((R)-1-(2,4-Dichlorophenyl)ethyl)-3-methyl-1H-pyrazolo[3,4-b]pyrazin-6-yl)-3′-methyl-[1,4′-bipiperidin]-3-yl)acetic acid formate] | 6.30 to 7.00 |
| C[C@@H]1CN(c2cnc3c(C#N)nn([C@H](C)c4ccc(Cl)cc4Cl)c3n2)CC[C@@H]1N1CCC[C@@H](CC(=O)O)C1 [Example 39, 2-((3S,3′R,4′S)-1′-(3-Cyano-1-((R)-1-(2,4-dichlorophenyl)ethyl)-1H-pyrazolo[3,4-b]pyrazin-6-yl)-3′-methyl-[1,4′-bipiperidin]-3-yl)acetic acid formate] | 6.30 to 7.00 |
| Cc1nn([C@H](C)c2ccc(Cl)cc2Cl)c2nc(N3CC[C@@H](N4CCC[C@@H](CCC(=O)O)C4)[C@@H](C)C3)cnc12 [Example 40, 3-((3S,3′S,4′R)-1′-(1-((R)-1-(2,4-Dichlorophenyl)ethyl)-3-methyl-1H-pyrazolo[3,4-b]pyrazin-6-yl)-3′-methyl-[1,4′-bipiperidin]-3-yl)propanoic acid 2,2,2-trifluoroacetate] | < 6.30 |
| Cc1nn([C@H](C)c2ccc(Cl)cc2Cl)c2nc(N3CC[C@H](N4CCC[C@H]4CCC(=O)O)[C@H](C)C3)cnc12 [Example 42, 3-((S)-1-((3R,4S)-1-(1-((R)-1-(2,4-dichlorophenyl)ethyl)-3-methyl-1H-pyrazolo[3,4-b]pyrazin-6-yl)-3-methylpiperidin-4-yl)pyrrolidin-2-yl)propanoic acid hydrochloride] | 6.30 to 7.00 |
| C[C@@H]1CN(c2cnc3c(C#N)nn([C@H](C)c4ccc(Cl)cc4Cl)c3n2)CC[C@@H]1N1CCC[C@H]1CCC(=O)O [Example 43, 3-((S)-1-((3R,4S)-1-(3-Cyano-1-((R)-1-(2,4-dichlorophenyl)ethyl)-1H-pyrazolo[3,4-b]pyrazin-6-yl)-3-methylpiperidin-4-yl)pyrrolidin-2-yl)propanoic acid hydrochloride] | > 7.00 |
| Cc1nn([C@H](C)c2ccc(Cl)cc2Cl)c2nc(N3CC[C@H](N4CCC[C@H]4CCC(N)=O)[C@H](C)C3)cnc12 [Example 44, 3-((S)-1-((3R,4S)-1-(1-((R)-1-(2,4-Dichlorophenyl)ethyl)-3-methyl-1H-pyrazolo[3,4-b]pyrazin-6-yl)-3-methylpiperidin-4-yl)pyrrolidin-2-yl)propanamide hydrochloride] | > 7.00 |
| Cc1nn([C@H](C)c2ccc(Cl)cc2Cl)c2nc(N3CCC(N4CCC[C@H]4CCN)[C@H](C)C3)cnc12 (stereo partly drawn) [Example 45, 3-((R)-1-((3R,4S)-1-(1-((R)-1-(2,4-Dichlorophenyl)ethyl)-3-methyl-1H-pyrazolo[3,4-b]pyrazin-6-yl)-3-methylpiperidin-4-yl)pyrrolidin-2-yl)ethan-1-amine] | 6.30 to 7.00 |
| C[C@@H]1CN(c2cnc3c(C#N)nn([C@H](C)c4ccc(Cl)cc4Cl)c3n2)CC[C@@H]1N1CCC[C@H]1CCC(N)=O [Example 48, 3-((S)-1-((3R,4S)-1-(3-Cyano-1-((R)-1-(2,4-dichlorophenyl)ethyl)-1H-pyrazolo[3,4-b]pyrazin-6-yl)-3-methylpiperidin-4-yl)pyrrolidin-2-yl)propanamide 2,2,2-trifluoroacetate] | > 7.00 |
| Cc1nn([C@H](C)c2ccc(Cl)cc2F)c2nc(N3CC[C@H](N4CCC[C@H]4CCC(=O)O)[C@H](C)C3)cnc12 [Example 49, 3-((S)-1-((3R,4S)-1-(1-((R)-1-(4-Chloro-2-fluorophenyl)ethyl)-3-methyl-1H-pyrazolo[3,4-b]pyrazin-6-yl)-3-methylpiperidin-4-yl)pyrrolidin-2-yl)propanoic acid 2,2,2-trifluoroacetate] | 6.30 to 7.00 |
| Cc1nn([C@H](C)c2ccc(Cl)cc2Cl)c2nc(N3CCC(N4CCC[C@H]4CCC(=O)O)CC3)cnc12 [Example 51, 3-((S)-1-(1-(1-((R)-1-(2,4-Dichlorophenyl)ethyl)-3-methyl-1H-pyrazolo[3,4-b]pyrazin-6-yl)piperidin-4-yl)pyrrolidin-2-yl)propanoic acid 2,2,2-trifluoroacetate] | 6.30 to 7.00 |
